The subject of test [1] is rPLA2. The experiment in a line: rPLA2 enzyme activity assay with 2-[1-14C]AA-GPC substrate in the presence of inhibitors or divalent metal ions. The test is classed as biochemical, bovine. The note with it: for inhibition of rPLA2 activity: substrate 2-[1-14C]AA-GPC, 10 min; for effect on rPLA2 activity compared with cPLA2: comparison rPLA2 versus cPLA2. On the procedure: To verify the effect of known inhibitors on the activity of rPLA2, the various concentrations of inhibitors, i.e., DTT (dithiothtreitol), AACOCF3 (arachidonylfluoromethyl ketone) known as the cPLA2 inhibitor, mepacrine and methyl mercury, mercuric chloride known as the sPLA2 inhibitors were added to active pool from Mono Q column and reacted 2-[1-^14C]-AA-GPC as a substrate for 10 min. The comparative groups, cPLA2 and sPLA2, were subjected to in a same procedure.
To verify the effect of divalent metal ions on enzyme activity, to rPLA2 activity, various concentrations of divalent metal i.e., Zn^2+, Fe^2+, Cu^2+, Sr^2+, Ba^2+, Mn^2+ and Mg^2+ were added to active pool from Mono Q column and reacted 2-[1-^14C]-AA-GPC as a substrate for further 10 min. The comparative groups, cPLA2 and sPLA2, were subjected to in a same procedure.
To measure the functions of rPLA2 using inventive antibody, the supernatant obtained from above procedure was adopted to analyze the activity. PLA2 activity was measured in an assay system (100 μl) of 75 mM Tris-HCl (pH 7.5) containing […] of 2-[1-^14C]AA-GPC (110,000 cpm/4.5 nmol) mixed with 2-[1-^14C]AA-GPC, 4% glycerol, 5 mM CaCl2 and 0.2 % BSA.
Prepared rPLA2 and cPLA2 and each inhibitor dissolved in 5 μl of DMSO solution was added and reacted for 10 min at 37° C. maintaining the temperature. 2-[1-^14C]AA-PC as a substrate was added and reacted for 10 min at 37° C. maintaining the temperature.
To verify the mechanism of inhibition, Dixon plot was constructed (FIG. 31).

Test [2] has as its system human RBCs. Put plainly: [3H]AA release from labeled human RBCs. The test is classed as cell-based. The note with it: for inhibition of AA release by A23187 in human RBC: 50 μM of EA4, 20 min, then 2 μM A23187, 37 °C. On the procedure: (§1) Human venous blood was collected in heparin (40 unit/ml) from some healthy volunteers among the Korean graduate students in our laboratory and bovine blood freshly collected in heparin (40 unit/ml) in a local slaughterhouse. After blood was centrifuged at 500×g for 20 min, the resulting supernatants of the platelet-rich plasma, the buffy coat and the leading edge of the packed RBCs were completely removed by aspiration. Sedimented RBCs, leukocytes, and platelets were re-suspended in a sterile buffer (50 mM Tris-HCl, pH 7.5, 1 mM EDTA, 0.12 M NaCl). This centrifugation and aspiration cycle was repeated six times taking care of removing leukocytes and platelets and the top 10% of the RBCs suspensions. Washed cell suspensions (10 ml) were subsequently depleted of residual leukocytes and platelets by filtration through a Sepharose 4B-200 column (20×2.5 cm) pre-equilibrated with sterile saline (0.9% w/v NaCl) as described above.
(§2) The Sepharose 4B-200 column-purified RBCs suspensions (approximately 1×10^9 cells/ml) were twice washed with serum-free MEM containing 1 mg/ml of fatty acid-free bovine serum albumin (BSA) and labeled for 1 hr with 1.5 mCi [^3H]AA (1 mCi/0.1 ml ethanol)/ml of the same medium. Murine L929 cells (1-2×10^6 cells/ml) were labeled for 6 hrs with 1.5 mCi [^3H]AA (1 mCi/0.1 ml ethanol)/ml of the same medium. Thereafter, cells were washed three times to remove all unincorporated [^3H]AA. […]
(§3) For analysis of [^3H] AA release, at each time of 0, 10, 30, 60 and 90 min after reaction between the cell and A23187, the RBCs were centrifuged as above, and each aliquot (200 μl) of the supernatants for the RBCs and each aliquot (100 μl ) of the conditioned media for the L929 cells was transferred to 2.5 ml of the scintillation counting solution and counted for radioactivity with a Packard Tri-carb liquid β-scintillation counter (Packard Instrument Co., Meriden, Conn.). […]
(§4) Cells were collected and centrifuged at the interval of 10 min. And the radioactivity was measured by scintillation counter.

The subject of test [3] is bovine RBCs. The experiment in a line: [3H]AA release from labeled bovine RBCs. The format is cell-based. The settings on record: for inhibition of AA release by A23187 in bovine RBC: 50 μM of EA4, 20 min, then 2 μM A23187, 37 °C. The method, then: as §1, §2, §3, §4
Test [4] deals with L929 cells. The experiment in a line: [3H]AA release from labeled L929 cells. The format is cell-based, murine. The note with it: 50 μM of EA4, 20 min, then 2 μM A23187, 37 °C. The method, then:
The Sepharose 4B-200 column-purified RBCs suspensions (approximately 1×10^9 cells/ml) were twice washed with serum-free MEM containing 1 mg/ml of fatty acid-free bovine serum albumin (BSA) and labeled for 1 hr with 1.5 mCi [^3H]AA (1 mCi/0.1 ml ethanol)/ml of the same medium. Murine L929 cells (1-2×10^6 cells/ml) were labeled for 6 hrs with 1.5 mCi [^3H]AA (1 mCi/0.1 ml ethanol)/ml of the same medium. Thereafter, cells were washed three times to remove all unincorporated [^3H]AA. The labeled cells were incubated in MEM containing 1 mg/ml BSA as a trap for the released [^3H]AA and then stimulated with vehicle (0.1 μl ethanol/ml medium) or 2 μM of calcium ionophore A23187 at 37° C. And a control group is treated with vehicle only without A23187 compound.
as §3, §4

Test [5] relates to cPLA2. The experiment in a line: cPLA2 enzyme activity assay with inhibitors (comparative group). The format is biochemical, porcine. The settings on record: substrate 2-[1-14C]AA-PC, 10 min, 37° C. An excerpt:
Stearoyl-2-[1-^14C]arachidonyl-sn-glycerol-3-phosphocholine (2-[1-^14C]AA-GPC) (55.3 mCi/mmol), 1-palmitoyl-2-[1-^14C]palmitoyl-sn-glycerol-3-phosphocholine (2-[1-^14C]PA-GPC) (55.6 mCi/mmol), 1-palmitoyl-2-[1-^14C]linoleoyl-sn-glycerol-3-phosphocholine (2-[1-^14C]LA-GPC) (55.9 mCi/mmol), 1-acyl-2-[1-^14C]arachidonyl-sn-glycerol-3-phosphoethanolamine (2-[1-^14C]AA-GPE) (55.1 mCi/mmol) and [^3H]arachidonic acid (AA) (204 Ci/mmol) ([^3H]AA) were purchased from the radio-chemical center, Amersham Life Science Ltd. (Buckinghamshire, UK). 1-Stearoyl-2-arachidonyl-sn-glycerol-3-phosphocholine (2-AA-GPC), dithiothreitol (DTT), A23187, 3,3′-diaminobenzidine (DAB), methylcellulose, erythropoietin and Sepharose 4B-200 gel filtration column were purchased from Sigma Co. (St. Louis, Mo.). Anti-human secretory 14 kDa sPLA2 antibody was purchased from Upstate Biotechnology, Inc. (Lake Placid, N.Y.). Goat anti-rabbit- and anti-mouse-alkaline phosphatase conjugates were purchased from Santa Cruz Biotechnology Inc., Santa Cruz, Calif. Group IV cytosolic PLA2 (cPLA2) was purified from porcine spleen and anti-cPLA2 polyclonal antibody was generated as described above(Kim, D. K., and Bonventure, J. V., Biochem. J., 294, 261-270, 1993). Group II secretory PLA2 (sPLA2) was partially purified from bovine platelets as described above (Hara, S et al., J. biochem., 105, 395-399, 1989). […]

Where [6] appears, read: 2 μM A23187, 37° C., 0-90 min, time-dependent.

Entries after “also recorded” stand apart in the source; their conditions may differ.

Regarding `O[C@H](CS)[C@H](O)CS` (racemic) [DTT, dithiothreitol, reference compound], the “inhibition of rPLA2 activity” value in test [1] was “not inhibited”.

Consider `CNc1ccc2oc(C[C@H]3O[C@@]4(CC[C@H]3C)O[C@H]([C@H](C)C(=O)c3ccc[nH]3)[C@H](C)C[C@H]4C)nc2c1C(=O)O` [A23187, reference compound], for which the “release of [3H]AA from human RBCs” value in test [2] (setting [6]) was “released”. In addition, the “release of [3H]AA from bovine RBCs” value in test [3] (setting [6]) is on record as “released”.

Take `[Ba+2]` [Ba^2+]: the “activation of rPLA2 activity by divalent metal cation” value (“activation of rPLA2 activity” below) in test [1] is reported as “activated”.

`[Cu+2]` [Cu^2+]: in test [1], the “activation of rPLA2 activity” value is recorded as “activated”.

As usually defined, the Ki is the dissociation constant of the complex between target and ligand, obtained from inhibition or displacement. Regarding `CCN(CC)c1ccc(C2=C(Cl)C(=O)c3ncccc3C2=O)cc1` [EA4, 7-chloro-6-[4-(diethylamine)phenyl]-5,8-quinolinedione], the “inhibitory pattern on rPLA2” value in test [1] (Dixon plot) is “competitive; also recorded: competitively”. In test [1] (Dixon plot, competitive inhibition, read-out: inhibition constant (Ki) for rPLA2), the Ki worked out at 130 µM. Moreover, in test [1], the “inhibition of rPLA2 activity” value was “inhibited”. Besides, the “inhibition of AA release in L929 cells” value in test [4] is given as “inhibited”. Moreover, in test [2], the “inhibition of AA release by A23187 in human RBC” value is “significantly inhibited”. The “inhibition of cPLA2 activity” value in test [5] is “inhibited; also recorded: inhibits the activity of cPLA2”. In addition, the “inhibition of AA release by A23187 in bovine RBC” value in test [3] is reported as “significantly inhibited; also recorded: inhibits the release”.

`[Fe+2]` [Fe^2+]: the “activation of rPLA2 activity” value in test [1] is listed as “activated”.

Take `[Mg+2]` [Mg^2+]: in test [1], the “activation of rPLA2 activity” value is on record as “activated”.

Regarding `[Mn+2]` [Mn^2+], the “activation of rPLA2 activity” value in test [1] is given as “activated”.

With `[Sr+2]` [Sr^2+], the “activation of rPLA2 activity” value in test [1] is recorded as “activated”.

Consider `CC(C)(C)c1cc(C2=C(Cl)C(=O)c3ccccc3C2=O)cc(C(C)(C)C)c1O` [TP1, 2-(3,5-Di-tert-butyl-4-hydroxyphenyl)-3-chloro-1,4-naphthalene dione, reference compound], for which the “inhibition of rPLA2 activity” value in test [1] was “inhibited that of cPLA2 only; also recorded: not inhibited”. Moreover, the “inhibition of AA release in L929 cells” value in test [4] is reported as “inhibited”. The “inhibition of AA release by A23187 in human RBC” value in test [2] is “not inhibited”. In addition, the “inhibition of cPLA2 activity” value in test [5] is given as “inhibited”. In addition, in test [3], the “inhibition of AA release by A23187 in bovine RBC” value is reported as “not inhibited”.

Regarding `[Zn+2]` [Zn^2+], the “activation of rPLA2 activity” value in test [1] is recorded as “activated”.

For `CCN(CC)CCCC(C)Nc1c2ccc(Cl)cc2nc2ccc(OC)cc12` (stereo not drawn) [mepacrine, reference compound], the “inhibition of rPLA2 activity” value in test [1] was “not inhibited”.

Take `[Cl][Hg][Cl]` [mercuric chloride, reference compound]: in test [1], the “effect on rPLA2 activity compared with cPLA2” value was “different profile from cPLA2” and the “inhibition of rPLA2 activity” value was “not inhibited”.

Turning to `[CH3][Hg][Cl]` [methyl mercury, reference compound], in test [1], the “effect on rPLA2 activity compared with cPLA2” value is “less effective activity than cPLA2” and the “inhibition of rPLA2 activity” value is recorded as “not inhibited”.
